{"source": "patent US20060141047A1", "about": "“Methods and compositions for delivery of catecholic butanes for treatment of obesity” (priority 2003, published 2006)", "origin": "cited, not measured here", "key": {"[1]": {"tested_on": "HPV-16 transformed immortal mouse epithelial cells (C3)", "conditions": "intratumor injection, separately or together, U.S. Pat. No. 6,417,234 and 6,214,874; cited from earlier work"}, "[2]": {"tested_on": "mammary carcinoma MX-1 xenograft", "conditions": "intratumor injection or topical application, athymic mice, U.S. Pat. No. 5,008,294; cited from earlier work"}}, "data": [{"compound": "C[C@H](Cc1ccc(OC(=O)CN(C)C)c(OC(=O)CN(C)C)c1)[C@@H](C)Cc1ccc(OC(=O)CN(C)C)c(OC(=O)CN(C)C)c1", "note": "[G4N, meso-1,4-bis[3,4-(dimethylaminoacetoxy)phenyl]-(2R,3S)-dimethylbutane]", "values": [{"measurement": "Suppression of tumor growth", "setting": "[1]", "value": "some evidence of suppression of tumor growth"}]}, {"compound": "CC(Cc1ccc(O)c(O)c1)C(C)Cc1ccc(O)c(O)c1", "note": "(centres unmarked) [NDGA, nordihydroguaiaretic acid]", "values": [{"measurement": "Inhibition of tumor growth", "setting": "[2]", "value": "Some evidence of inhibition of tumor growth"}]}]}
